Values quoted from earlier work in patent US8163752B2, “Tricyclic anilide heterocyclic CGRP receptor antagonists” (Merck, Sharp & Dohme Corp., priority 2007, dated 2012).
No end group written: not given here.

Key:
middle meningeal artery = details: rats, electrical stimulation of the dura mater, prior administration (Williamson et al. 1997)
facial blood flow [1] = details: rat, trigeminal ganglion stimulation (Escott et al. 1995)
[2] = test system: acute attacks of migraine; details: clinical trials (Olesen et al. 2004)
[3] = test system: headache induced by CGRP infusion; details: control group (Petersen et al. 2005)
facial blood flow [4] = details: marmoset, electrical stimulation of the trigeminal ganglion (Doods et al. 2000)

Molecule	effect on increase of middle meningeal artery diameter (middle meningeal artery)	effect on increased facial blood flow (facial blood flow [1])	efficacy in treating acute attacks of migraine [2]	prevention of headache induced by CGRP infusion [3]	effect on increase in facial blood flow (facial blood flow [4])
CGRP(8-37): a peptide CGRP antagonist; fragment of CGRP that lacks seven N-terminal amino acid residues (VTHRLAGLLSRSGGVVKNNFVPTNVGSKAF; ends and bridges not checked; UniProt P06881 90-119, looked up, fragment)	blocked	inhibited			
NCCCC[C@H](NC(=O)[C@@H](Cc1cc(Br)c(O)c(Br)c1)NC(=O)N1CCC(N2Cc3ccccc3NC2=O)CC1)C(=O)N1CCN(c2ccncc2)CC1 [BIBN4096BS]			effective in treating acute attacks of migraine	able to prevent headache induced by CGRP infusion	could be blocked
